Measurements taken from US9040542B2, “Solid forms of gyrase inhibitor (R)-1-ethyl-3-[6-fluoro-5-[2-(1-hydroxy-1-methyl-ethyl)pryimidin-5-yl]-7-(tetrahydrofuran-2-yl)-1H-benzimidazol-2-yl]urea” (priority 2011, dated 2015).
≈ marks a conversion by molar mass, not a printed value.

Experiments:
[1] = tested on: Bacillus subtilis (168) ATCC 6051; assay: MIC, Protocol #1 microdilution broth; type: cell-based
Bacteroides fragilis = assay: MIC90 panel, Protocol #3 agar dilution; type: cell-based; conditions: 25 isolates
M. abscessus MC 6111 = assay: MIC, Protocol #4 Mycobacterium species; type: cell-based
M. abscessus MC 6136 = assay: MIC, Protocol #4 Mycobacterium species; type: cell-based
Staphylococcus aureus = assay: MIC90 panel, Protocol #1 microdilution broth; type: cell-based; conditions: 67 isolates
M. abscessus BB4 = assay: MIC, Protocol #4 Mycobacterium species; type: cell-based
[2] = tested on: Moraxella catarrhalis ATCC 49143; assay: MIC, Protocol 2 microdilution broth, Gram negatives; design: unit not given beside the values
[3] = tested on: β-haemolytic streptococci (Groups A, B, C and G); assay: MIC90 panel, Protocol #1 microdilution broth; type: cell-based; conditions: 28 isolates
M. abscessus MC 5922 = assay: MIC, Protocol #4 Mycobacterium species; type: cell-based
[4] = tested on: M. tuberculosis Erdman ATCC 35801; assay: MIC, Protocol #4 Mycobacterium species; type: cell-based
M. abscessus BB2 = assay: MIC, Protocol #4 Mycobacterium species; type: cell-based
Prevotella spp. = assay: MIC90 panel, Protocol #3 agar dilution; type: cell-based; conditions: 13 isolates
M. kansasii 303 = assay: MIC, Protocol #4 Mycobacterium species; type: cell-based
[5] = tested on: Enterococcus faecalis ATCC 29212; assay: MIC, Protocol #1 microdilution broth; type: cell-based; conditions: Enterococcus faecalis ATCC 29212, with Laked Horse Blood
M. abscessus MC 5931 = assay: MIC, Protocol #4 Mycobacterium species; type: cell-based
Enterococcus faecium = assay: MIC90 panel, Protocol #1 microdilution broth; type: cell-based; conditions: 33 isolates
N. asteroids 2039 = assay: MIC, Protocol #4 Mycobacterium species; type: cell-based
Fusobacterium spp. = assay: MIC90 panel, Protocol #3 agar dilution; type: cell-based; conditions: 16 isolates
M. abscessus BB6 = assay: MIC, Protocol #4 Mycobacterium species; type: cell-based
M. abscessus MC 6153 = assay: MIC, Protocol #4 Mycobacterium species; type: cell-based
M. abscessus MC 6025 = assay: MIC, Protocol #4 Mycobacterium species; type: cell-based
M. kansasii 379 = assay: MIC, Protocol #4 Mycobacterium species; type: cell-based
Enterococcus faecalis = assay: MIC90 panel, Protocol #1 microdilution broth; type: cell-based; conditions: 34 isolates
Clostridium perfringens = assay: microbe, parasite or virus in culture; type: cell-based
Nocardia caviae 2497 = assay: MIC, Protocol #4 Mycobacterium species; type: cell-based
Experimental: Protocol #4. MIC Determination Procedure for Mycobacterium Species
Inoculum Preparation for M. kansasii, M. avium, M. abscessus and Nocardia spc.: • 1. Used prepared frozen stock of culture or a fresh culture grown in 7H10 broth at a concentration of 10 Klett or 5×10^7/ml. • 2. Prepared a 1:20 dilution by removing 1.0 ml of the culture stock and added it to 19 ml of 7H10 broth (final concentration 2.5×10^6 cfu/ml). • 3. From this dilution prepared a 1:20 dilution, removed 1 ml and added it to 19 ml of fresh broth (final suspension).
Plate Preparation: • 1. Labeled plates. • 2. Added 50 μl of 7H10 broth +10% OADC to all wells being utilized for MIC determination using a multichannel electronic pipettor. • 3. Prepared stock solutions of drugs (e.g. 1 mg/ml concentration) to be tested. • 4. Thawed and diluted frozen stock solutions using 7H10 broth +10% OADC to obtain a working solution 4× the maximum concentration tested (e.g. final concentration 32 μg/ml, highest concentration tested was 8 μg/ml). Dilutions were made from the stock solution. To start at a concentration of 1 μg/ml, the drugs were prepared at 4 μg/ml, so the starting concentration was 1 μg/ml. Removed 25 μl of the 1 mg/ml stock and added to 6.2 ml of broth. All dilutions of drugs were done in broth. • 5. Added 50 μl of the 4× working solution to the first well of the designated row. […] Read visually and recorded the results.

[6] = tested on: M. tuberculosis Erdman ATCC 35801; assay: Protocol #5 Mycobacterium tuberculosis Serum Shift MIC Assay; type: cell-based
M. abscessus MC 5605 = assay: MIC, Protocol #4 Mycobacterium species; type: cell-based
M. abscessus MC 6142 = assay: MIC, Protocol #4 Mycobacterium species; type: cell-based
[7] = tested on: Bacillus cereus ATCC 10987; assay: MIC, Protocol #1 microdilution broth; type: cell-based
[8] = tested on: Staphylococcus aureus ATCC 29213; assay: MIC, Protocol #1 microdilution broth; type: cell-based
M. abscessus MC 5812 = assay: MIC, Protocol #4 Mycobacterium species; type: cell-based
[9] = tested on: Staphylococcus aureus ATCC 29213 GyrB T173I; assay: MIC, Protocol #1 microdilution broth; type: cell-based
[10] = tested on: Neisseria gonorrhoeae ATCC 35541; assay: MIC, Protocol #3 agar dilution; type: cell-based
[11] = tested on: Streptococcus pneumoniae ATCC 10015; assay: MIC, Protocol #1 microdilution broth; type: cell-based; conditions: Streptococcus pneumoniae ATCC 10015, with Laked Horse Blood

CCNC(=O)Nc1nc2cc(-c3cnc(C(C)(C)O)nc3)c(F)c([C@H]3CCCO3)c2[nH]1 [Compound 24, 1-ethyl-3-[6-fluoro-5-[2-(1-hydroxy-1-methyl-ethyl)pyrimidin-5-yl]-7-[(2R)-tetrahydrofuran-2-yl]-1H-benzimidazol-2-yl]urea]
MIC [1]: 4 µg/mL (≈ 9.34 µM) | MIC90 (Bacteroides fragilis): 16 µg/mL (≈ 37.3 µM) | MIC Range (Bacteroides fragilis): 1 to 16 µg/mL | MIC (M. abscessus MC 6111): 0.5 µg/mL (≈ 1.17 µM) | MIC (M. abscessus MC 6136): 0.5 µg/mL (≈ 1.17 µM) | MIC90 (Staphylococcus aureus): 0.03 µg/mL (≈ 0.07 µM) | MIC Range (Staphylococcus aureus): 8 to 60 ng/mL | MIC (M. abscessus BB4): 2 µg/mL (≈ 4.67 µM) | MIC [2]: ≦0.016 | MIC90 [3]: 0.12 µg/mL (≈ 0.28 µM) | MIC Range [3]: 0.015 to 0.12 µg/mL | MIC (M. abscessus MC 5922): 0.25 µg/mL (≈ 0.583 µM) | MIC [4]: 0.06 µg/mL (≈ 0.14 µM) | MIC (M. abscessus BB2): 1 µg/mL (≈ 2.33 µM) | MIC90 (Prevotella spp.): 16 µg/mL (≈ 37.3 µM) | MIC Range (Prevotella spp.): 0.06 to 16 µg/mL | MIC (M. kansasii 303): 0.03 µg/mL (≈ 0.07 µM) | MIC [5]: 0.028 µg/mL (≈ 0.0653 µM) | MIC (M. abscessus MC 5931): 0.5 µg/mL (≈ 1.17 µM) | MIC90 (Enterococcus faecium): 0.12 µg/mL (≈ 0.28 µM) | MIC Range (Enterococcus faecium): 3 to 250 ng/mL | MIC (N. asteroids 2039): 1 µg/mL (≈ 2.33 µM) | MIC90 (Fusobacterium spp.): > 16 µg/mL | MIC (M. abscessus BB6): 0.5 µg/mL (≈ 1.17 µM) | MIC (M. abscessus MC 6153): 1 µg/mL (≈ 2.33 µM) | MIC (M. abscessus MC 6025): 0.75 µg/mL (≈ 1.75 µM) | MIC (M. kansasii 379): < 0.015 µg/mL | MIC90 (Enterococcus faecalis): 0.06 µg/mL (≈ 0.14 µM) | MIC Range (Enterococcus faecalis): 0.015 to 0.12 µg/mL | MIC90 (Clostridium perfringens): 0.5 µg/mL (≈ 1.17 µM) | MIC Range (Clostridium perfringens; 12 isolates, Protocol 3): 0.12 to 0.5 µg/mL | MIC (Nocardia caviae 2497): 0.125 µg/mL (≈ 0.292 µM) | MIC ([6]; M. tuberculosis Erdman ATCC 35801): 0.03 µg/mL | MIC ([6]; M. tuberculosis Erdman ATCC 35801 with Mouse Serum): 0.5 µg/mL | MIC (M. abscessus MC 5605): 1.5 µg/mL (≈ 3.5 µM) | MIC (M. abscessus MC 6142): 0.5 µg/mL (≈ 1.17 µM) | MIC [7]: 0.031 µg/mL (≈ 0.0724 µM) | MIC ([8]; Staphylococcus aureus ATCC 29213): 0.021 µg/mL (≈ 0.049 µM) | MIC ([8]; Staphylococcus aureus ATCC 29213 with Human Serum): 0.15 µg/mL (≈ 0.35 µM) | MIC ([8]; Staphylococcus aureus ATCC 29213 with Mouse Serum): 0.5 µg/mL (≈ 1.17 µM) | MIC ([8]; Staphylococcus aureus ATCC 29213 with Rat Serum): 0.18 µg/mL (≈ 0.42 µM) | MIC (M. abscessus MC 5812): 1 µg/mL (≈ 2.33 µM) | MIC [9]: 0.3 µg/mL (≈ 0.7 µM) | MIC [10]: 0.42 µg/mL (≈ 0.98 µM) | MIC [11]: 0.01 µg/mL (≈ 0.0233 µM)
